pKi: −log10 of the molar value. The source made the active and inactive calls. The rule behind the calls is not given here.
How the values were obtained:
Cannabinoid receptor 1 = Cannabinoid receptor 1 (Homo sapiens, UniProt P21554); assay: Displacement of [3H]-CP55940 from human CB1 receptor after 90 mins by liquid scintillation spectrophotometer analysis
Cannabinoid receptor 2 = Cannabinoid receptor 2 (Homo sapiens, UniProt P34972); assay: Displacement of [3H]-CP55940 from human CB2 receptor after 90 mins by liquid scintillation spectrophotometer analysis
Rattus norvegicus [1] = assay: Antiobesity activity in Wistar rat assessed as reduction of food intake at 3 mg/kg, ip after 30 to 240 mins; type: functional, organism-based; parameters: dose 3 mg/kg
Rattus norvegicus [2] = assay: Antiobesity activity in Wistar rat assessed as reduction of food intake at 3 mg/kg, ip; type: functional, organism-based; parameters: dose 3 mg/kg
Rattus norvegicus [3] = assay: Antiobesity activity in Wistar rat assessed as reduction of food intake at 3 mg/kg, ip after 30 mins; type: functional, organism-based; parameters: dose 3 mg/kg
Rattus norvegicus [4] = assay: Antiobesity activity in Wistar rat assessed as reduction of food intake at 3 mg/kg, ip after 60 to 240 mins; type: functional, organism-based; parameters: dose 3 mg/kg
Rattus norvegicus [5] = assay: Increase of food intake in Wistar rat at 3 mg/kg, ip after 30 to 240 mins; type: functional, organism-based; parameters: dose 3 mg/kg

Cannabinoid receptor 2, sequence (P34972 whole entry): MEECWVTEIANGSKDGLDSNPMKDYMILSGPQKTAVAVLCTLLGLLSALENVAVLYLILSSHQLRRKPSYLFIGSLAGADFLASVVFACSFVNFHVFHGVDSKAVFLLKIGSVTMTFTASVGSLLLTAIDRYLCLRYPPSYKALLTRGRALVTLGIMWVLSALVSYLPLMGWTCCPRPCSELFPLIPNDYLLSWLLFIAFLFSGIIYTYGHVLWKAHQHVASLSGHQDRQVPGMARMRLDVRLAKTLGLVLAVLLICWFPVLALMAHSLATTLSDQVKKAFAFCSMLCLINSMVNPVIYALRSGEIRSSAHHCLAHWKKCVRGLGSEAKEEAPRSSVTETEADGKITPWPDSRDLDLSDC
Cannabinoid receptor 1, sequence (P21554 whole entry): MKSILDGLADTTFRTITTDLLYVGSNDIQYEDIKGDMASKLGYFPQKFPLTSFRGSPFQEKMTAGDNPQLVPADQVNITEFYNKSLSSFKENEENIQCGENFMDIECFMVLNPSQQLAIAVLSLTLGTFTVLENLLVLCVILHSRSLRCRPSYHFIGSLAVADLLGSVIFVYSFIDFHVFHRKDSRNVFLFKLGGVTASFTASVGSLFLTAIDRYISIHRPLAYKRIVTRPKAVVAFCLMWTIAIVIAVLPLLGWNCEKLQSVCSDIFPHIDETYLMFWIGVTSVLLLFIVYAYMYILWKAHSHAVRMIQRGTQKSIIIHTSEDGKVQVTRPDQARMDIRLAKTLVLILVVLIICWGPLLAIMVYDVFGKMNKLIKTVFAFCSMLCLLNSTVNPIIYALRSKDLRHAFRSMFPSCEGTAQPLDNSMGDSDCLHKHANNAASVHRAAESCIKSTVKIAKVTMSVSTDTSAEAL

Compound	pKi (Cannabinoid receptor 1)	pKi (Cannabinoid receptor 2)	Activity (Rattus norvegicus [1])	Activity (Rattus norvegicus [2])	Activity (Rattus norvegicus [3])	Activity (Rattus norvegicus [4])	Activity (Rattus norvegicus [5])
CCCCCCc1cc(-c2ccc(Cl)cc2)n(-c2ccc(Cl)cc2Cl)n1	< 4.40	< 4.40	–	–	–	–	–
CCCCCCCC/C=C\CCCCCCCCNC(=O)c1nc(-c2ccc(Cl)cc2)n(-c2ccc(Cl)cc2)n1	< 4.40	< 4.40	inactive	–	–	–	–
CCCCCCCCCCCCCCCCNC(=O)c1nc(-c2ccc(Cl)cc2)n(-c2ccc(Cl)cc2)n1	< 5.00	< 5.00	Active	–	–	–	–
CCCCCc1cc(-c2ccccc2)n(-c2ccccc2)n1	5.21	5.53	–	–	–	–	–
CCCCCc1cc(-c2ccc(Cl)cc2)n(-c2ccc(Cl)cc2Cl)n1	< 4.40	6.34	–	Active	–	–	–
CCCCCCCC/C=C\CCCCCCCCNC(=O)c1nn(-c2ccccc2)c(-c2ccccc2)c1C	< 4.40	< 4.40	inactive	–	–	–	–
CCCCCCCCCCCCCCCCNC(=O)c1nn(-c2ccccc2)c(-c2ccccc2)c1C	< 5.00	< 5.00	Active	–	–	–	–
CCCCCCCC/C=C\CCCCCCCCNC(=O)c1cc(-c2ccccc2)n(-c2ccccc2)n1	< 4.40	< 4.40	inactive	–	–	–	–
O=C(NN1CCCCC1)c1cc(-c2ccccc2)n(-c2ccccc2)n1	5.34	4.55	–	–	inactive	Active	–
CCCCCCCCCCCCCCCCNC(=O)c1cc(-c2ccccc2)n(-c2ccccc2)n1	< 4.40	< 5.00	Active	–	–	–	–
Cc1c(C(=O)NN2CCCCC2)nn(-c2ccccc2)c1-c1ccccc1	5.01	4.74	–	–	–	–	Active
CCCCCCc1nc(-c2ccc(Cl)cc2)n(-c2ccc(Cl)cc2Cl)n1	6.08	5.51	–	–	–	–	–
